In US8802664B2 (Bioproject, priority 2010, dated 2014) one finds Ki or IC50 activity class data, which are given here for 38 compounds.

Where only a bound is given, the exact number is not on record here.

T1 sequence (Q9H3N8 whole entry): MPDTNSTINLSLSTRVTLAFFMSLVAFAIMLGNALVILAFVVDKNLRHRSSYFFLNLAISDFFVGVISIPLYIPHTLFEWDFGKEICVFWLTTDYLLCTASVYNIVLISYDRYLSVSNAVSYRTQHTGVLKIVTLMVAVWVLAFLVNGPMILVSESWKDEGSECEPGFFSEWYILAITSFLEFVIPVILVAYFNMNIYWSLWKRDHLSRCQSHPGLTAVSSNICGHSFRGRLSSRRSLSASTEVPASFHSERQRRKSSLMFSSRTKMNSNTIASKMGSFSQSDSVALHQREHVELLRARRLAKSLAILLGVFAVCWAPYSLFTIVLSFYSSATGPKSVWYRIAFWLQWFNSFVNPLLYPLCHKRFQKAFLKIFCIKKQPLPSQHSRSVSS

One assay has as its target T1, human H4 receptor (Homo sapiens, UniProt Q9H3N8).
T1 construct: expressed in transfected cells
Kind of assay: [3H]Histamine binding on membranes of CHO cells stably expressing human H4 receptor.
Details: not given
As for the experimental part:
CHO cells stably expressing human H4 receptor were grown until sub-confluence and centrifuged at 300 g 15 minutes at 4° C. Pellets were resuspended in buffer I Tris-HCl 50 mM, MgCl2 10 mM, NaCl 140 mM, pH=7.4 supplemented by a 1/50 dilution of a mix of protease inhibitors. The obtained suspension is stirred gently and submitted to a […] exerted through a syringe. The cell lysate is then centrifuged at 300 g 15 minutes at 4° C. in order to eliminate nucleus and cell scraps. The obtained supernatant was then centrifuged at 48000 g for 30 minutes at 4° C. The final pellet is resuspended in buffer I with a potter homogenizer. Aliquots were frozen in liquid nitrogen and stored until use at −80° C. Protein content is measured by the Bradford method.
Defreezed membranes were diluted at a final concentration of 20 μg/180 μL/well in a binding buffer containing 50 mM Tris/HCl, 0.5 mM EDTA, pH=7.4 and distributed in 96 well polystyrene microplate. [^3H] […] Non specific binding was estimated in the presence of 10 μM BP1.2404 (JNJ 7777120). The reaction was terminated by filtration through GF/B filters pre-soaked 2 hours at 4° C. in […]. Filters were rinsed 3 times with 250 μl of ice cold incubation binding buffer.
The filter-bound radioactivity was measured in a liquid scintillation counter Microbeta TRILUX® with 50 μl of scintillation fluid.
The hH4 binding investigated by use of [^3H]
Consider `CN1CCC(NC(c2cccc(I)c2)c2nc3ccccc3s2)CC1` (centres unmarked) [Example 48, [benzothiazol-2-yl(3-iodophenyl)methyl](1-methylpiperidin-4-yl)amine], for which the Ki or IC50 activity class was < 300 nM. Take `CN1CCC(OC(c2cccc(Br)c2)c2nc3cc(F)ccc3[nH]2)CC1` (single isomer, unassigned) [Example 568, 2-[(3-bromophenyl)(1-methylpiperidin-4-yloxy)methyl]-5-fluoro-1H-benzimidazole]: the Ki or IC50 activity class is < 30 nM.

For the compound `Cc1cccc(C(OC2CCN(C)CC2)c2nc3ccccc3s2)c1` (centres unmarked) [Example 8, 2-[(1-methylpiperidin-4-yloxy)(m-tolyl)methyl]benzothiazole], the Ki or IC50 activity class was < 30 nM. For `Cc1ccc(C(OC2CCN(C)CC2)c2nc3ccccc3[nH]2)cc1` (single isomer, unassigned) [Example 253, 2-[(1-methylpiperidin-4-yloxy)-p-tolylmethyl]-1H-benzimidazole], the Ki or IC50 activity class was < 30 nM. Regarding `CN1CCC(OC(c2cccc(C#CCCCNC(=N)N)c2)c2nc3ccccc3s2)CC1` (centres unmarked) [Example 340, N-(5-{3-[benzothiazol-2-yl(1-methylpiperidin-4-yloxy)methyl]phenyl}pent-4-ynyl)guanidine], the Ki or IC50 activity class was < 30 nM.

With `COc1ccc(-c2cccc(C(OC3CCN(C)CC3)c3nc4ccccc4s3)c2)cc1` (centres unmarked) [Example 100, 2-[(4′-methoxybiphenyl-3-yl)(1-methylpiperidin-4-yloxy)methyl]benzothiazole], the Ki or IC50 activity class is < 300 nM. The same measure, in the same setting: with `CN1CCC(OC(c2cccc(-c3ccccc3CO)c2)c2nc3ccccc3s2)CC1` (centres unmarked) [Example 127, {3′-[benzothiazol-2-yl(1-methylpiperidin-4-yloxy)methyl]biphenyl-2-yl}methanol] the figure was < 300 nM; with `CN1CCC(OC(c2ccc3ccccc3c2)c2nc3ccccc3s2)CC1` (centres unmarked) [Example 18, 2-[(1-methylpiperidin-4-yloxy)naphthalen-2-ylmethyl]benzothiazole], < 300 nM; with `CSCCOc1cccc(C(OC2CCN(C)CC2)c2nc3ccccc3s2)c1` (centres unmarked) [Example 250, 2-{(1-methylpiperidin-4-yloxy)[3-(2-methylsulfanyl-ethoxy)phenyl]methyl}benzothiazole], < 300 nM. The same measure, in the same setting: the value for `CN1CCC(OC(c2cccc(N3CCCC3CO)c2)c2nc3ccccc3s2)CC1` (centres unmarked) [Example 323, (1-{3-[benzothiazol-2-yl(1-methylpiperidin-4-yloxy)methyl]phenyl}pyrrolidin-2-yl)methanol] was < 1000 nM. In the case of `CN1CCC(OC(c2cccc(-c3cccnc3)c2)c2nc3ccccc3s2)CC1` (centres unmarked) [Example 63, 2-[(1-methylpiperidin-4-yloxy)(3-pyridin-3-ylphenyl)methyl]benzothiazole], the Ki or IC50 activity class is < 300 nM. Take `CN1CCC(OC(c2cccc(-c3ccc(F)c(F)c3F)c2)c2nc3ccccc3s2)CC1` (centres unmarked) [Example 141, 2-[(1-methylpiperidin-4-yloxy)(2′,3′,4′-trifluorobiphenyl-3-yl)methyl]benzothiazole]: the Ki or IC50 activity class was < 300 nM. On the same count and under the same terms, the value for `CN1CCC(OC(c2cccc(-c3ccccc3)c2)c2nc3ccccc3s2)CC1` (centres unmarked) [Example 53, 2-[biphenyl-3-yl(1-methylpiperidin-4-yloxy)methyl]benzothiazole] was < 300 nM; that for `CCOC(=O)NCCCCC#Cc1cccc(C(OC2CCN(C)CC2)c2nc3ccccc3n2C)c1` (centres unmarked) [Example 549, ethyl (6-{3-[(1-methyl-1H-benzimidazol-2-yl)(1-methylpiperidin-4-yloxy)methyl]phenyl}hex-5-ynyl)carbamate] was < 1000 nM; that for `CN1CCC(OC(c2cccc(-c3ccc(NC(=O)OC(C)(C)C)cc3)c2)c2nc3ccccc3s2)CC1` (centres unmarked) [Example 143, {3′-[benzothiazol-2-yl(1-methylpiperidin-4-yloxy)methyl]biphenyl-4-yl}carbamic acid tert-butyl ester] was < 300 nM. With `CN1CCC(OC(c2cccc(Oc3ccccc3)c2)c2nc3ccccc3s2)CC1` (centres unmarked) [Example 28, 2-[(1-methylpiperidin-4-yloxy)(3-phenoxy-phenyl)methyl]benzothiazole], the Ki or IC50 activity class was < 300 nM. Still for that read-out and setting: the value for `CCCCOc1cccc(C(OC2CCN(C)CC2)c2nc3ccccc3s2)c1` (centres unmarked) [Example 92, 2-[(3-butoxyphenyl)(1-methylpiperidin-4-yloxy)methyl]benzothiazole] was < 300 nM; that for `CN1CCC(OC(c2cc(F)cc(F)c2)c2nc3ccccc3s2)CC1` (centres unmarked) [Example 15, 2-[(3,5-difluorophenyl)(1-methyl-piperidin-4-yloxy)methyl]benzothiazole] was < 300 nM; that for `CCCOc1ccc(F)c(C(OC2CCN(C)CC2)c2nc3ccccc3[nH]2)c1` (centres unmarked) [Example 519] was < 30 nM. On the same count and under the same terms, the value for `CN1CCC(OC(c2cccc(N3CCC(O)CC3)c2)c2nc3ccccc3s2)CC1` (centres unmarked) [Example 411, 1-{3-[benzothiazol-2-yl(1-methylpiperidin-4-yloxy)methyl]phenyl}piperidin-4-ol] was < 1000 nM; that for `CN1CCC(OC(c2cccc(F)c2)c2nc3ccccc3s2)CC1` (centres unmarked) [Example 5] was < 300 nM. Same read-out and setting: with `CCOc1cccc(C(OC2CCN(C)CC2)c2nc3ccccc3s2)c1` (centres unmarked) [Example 47, 2-[(3-ethoxyphenyl)(1-methylpiperidin-4-yloxy)methyl]benzothiazole] the figure was < 30 nM; with `CN1CCC(OC(c2nc3ccccc3[nH]2)c2c(F)cccc2F)CC1` (centres unmarked) [Example 512], < 30 nM.

Consider `CN1CCC(NC(c2cc3ccccc3o2)c2nc3ccccc3s2)CC1` (centres unmarked) [Example 37, [(benzofuran-2-yl)(benzothiazol-2-yl)methyl](1-methylpiperidin-4-yl)amine], for which the Ki or IC50 activity class was < 1000 nM. With `CN1CCC(OC(c2cccc(SCCCCNC(=N)N)c2)c2nc3ccccc3[nH]2)CC1` (centres unmarked) [Example 444, N-(4-{3-[(1H-benzimidazol-2-yl)(1-methylpiperidin-4-yloxy)methyl]phenylsulfanyl}butyl)guanidine], the Ki or IC50 activity class is < 300 nM. The same measure, in the same setting: with `COc1cccc(COc2cccc(C(NC3CCN(C)CC3)c3nc4ccccc4[nH]3)c2)c1` (centres unmarked) [Example 125, {(1H-benzimidazol-2-yl)[3-(3-methoxybenzyloxy)phenyl]methyl}(1-methylpiperidin-4-yl)amine] the figure was < 30 nM.

`CN1CCC(OC(c2cccc(C#CCCO)c2)c2nc3ccccc3s2)CC1` (centres unmarked) [Example 236, 4-{3-[benzothiazol-2-yl(1-methylpiperidin-4-yloxy)methyl]phenyl}but-3-yn-1-ol]: the Ki or IC50 activity class is < 300 nM. As to `CN1CCC(OC(c2cccc(C#CCCNC(=N)N)c2)c2nc3ccccc3[nH]2)CC1` (centres unmarked) [Example 393, N-(4-{3-[(1H-benzimidazol-2-yl)(1-methylpiperidin-4-yloxy)methyl]phenyl}but-3-ynyl)guanidine], the Ki or IC50 activity class is < 30 nM.

Consider `CN1CCC(OC(c2ccsc2)c2nc3ccccc3[nH]2)CC1` (centres unmarked) [Example 539], for which the Ki or IC50 activity class was < 300 nM. With `CN1CCC(OC(c2cccc(N3CCCC3CN)c2)c2nc3ccccc3s2)CC1` (centres unmarked) [Example 482], the Ki or IC50 activity class is < 30 nM.

Turning to `CN1CCC(OC(c2cccc(N3CCC(O)C3)c2)c2nc3ccccc3s2)CC1` (centres unmarked) [Example 406, 1-{3-[benzothiazol-2-yl(1-methylpiperidin-4-yloxy)methyl]phenyl}pyrrolidin-3-ol], the Ki or IC50 activity class was < 30 nM.

Regarding `CN1CCC(OC(c2cccc(Br)c2)c2nc3ccccc3[nH]2)CC1` (centres unmarked) [Example 78, 2-[(3-bromophenyl)(1-methylpiperidin-4-yloxy)methyl]-1H-benzimidazole], the Ki or IC50 activity class is < 300 nM. For `CN1CCC(OC(c2cccc(-c3cccc(N)c3)c2)c2nc3ccccc3s2)CC1` (centres unmarked) [Example 79, 3′-[benzothiazol-2-yl(1-methylpiperidin-4-yloxy)methyl]biphenyl-3-ylamine], the Ki or IC50 activity class was < 300 nM. `CN1CCC(OC(c2cccc(C#CCCCn3cccn3)c2)c2nc3ccccc3[nH]2)CC1` (centres unmarked) [Example 410, 2-{(1-methylpiperidin-4-yloxy)[3-(5-pyrazol-1-yl-pent-1-ynyl)phenyl]methyl}-1H-benzimidazole]: the Ki or IC50 activity class is < 300 nM.

As to `CCCCc1cccc(C(OC2CCN(C)CC2)c2nc3ccccc3s2)c1` (centres unmarked) [Example 80, 2-[(3-butylphenyl)(1-methylpiperidin-4-yloxy)methyl]benzothiazole], the Ki or IC50 activity class was < 300 nM. On to `CN1CCC(OC(c2cccc(C#CCCCCN)c2)c2nc3cc(F)ccc3[nH]2)CC1` (centres unmarked) [Example 439, 6-{3-[(5-fluoro-1H-benzimidazol-2-yl)(1-methylpiperidin-4-yloxy)methyl]phenyl}hex-5-ynylamine], for which the Ki or IC50 activity class is < 30 nM. Still for that read-out and setting: the value for `CN1CCC(OC(c2cccc(OCc3ccccc3)c2)c2nc3ccccc3s2)CC1` (centres unmarked) [Example 45, 2-[(3-benzyloxyphenyl)(1-methylpiperidin-4-yloxy)methyl]benzothiazole] was < 30 nM.

The same assay, now with this note: human H4 receptor; evaluated in the GTPγ[35S] assay or in the [3H]histamine binding assay (not stated which per compound); Ki or IC50 class.
For `CC(C)C(=O)N(CCSc1cccc(C(OC2CCN(C)CC2)c2nc3ccccc3[nH]2)c1)C(=N)N` (centres unmarked) [Example 478], the Ki or IC50 activity class is < 300 nM.
